Our source for the Activity values is ChEMBL document CHEMBL1146845, “Structural determinants for N1/N7 cyclization of nicotinamide hypoxanthine 5'-dinucleotide (NHD+) derivatives by ADP-ribosyl cyclase from aplysia californica: Ca2+-mobilizing activity of 8-substituted cyclic inosine 5'-diphosphoribose analogues in T-lymphocytes” (J Med Chem, 2006).

This assay has as its system Jurkat. The assay is described as follows: Induction of calcium ion mobilization in intact Jurkat cells. In kind it is functional, cell-based. The settings on record: Homo sapiens.

Activity calls are given as the source filed them. The calls are words filed in the database; no cut-off is given here.

For the compound `O=c1c2nc(I)n3c2ncn1[C@@H]1O[C@H](COP(=O)(O)OP(=O)(O)OC[C@H]2O[C@@H]3[C@H](O)[C@@H]2O)[C@@H](O)[C@H]1O`, the result was Active.
As to `O=c1c2nc(-c3ccccc3)n3c2ncn1[C@@H]1O[C@H](COP(=O)(O)OP(=O)(O)OC[C@H]2O[C@@H]3[C@H](O)[C@@H]2O)[C@@H](O)[C@H]1O`, the result was Active.
